This test deals with Bcl-2-related protein A1 (Mus musculus) (UniProt Q07440). In words: Bfl-1 counter-screen inhibitors, SAR follow-up, counter-screen for UBC13 polyubiquitination inhibitor project, biochemical, mouse Bfl-1 (AID 504685). As to conditions: Bfl-1 counterscreen for UBC13 inhibitors. For orientation: A counterscreen serves to expose hits that act by an unwanted route or on another target.

Structures are written as SMILES. The source made the active and inactive calls. How the calls were made is not given here.

The term IC50 denotes the concentration needed to halve the response being measured. As for `O=C(CCCCn1c(=O)c2ccccc2n(Cc2ccccc2)c1=O)NC1CCN(Cc2ccccc2)CC1`, the IC50 is > 100 µM (inactive). As to `COc1ccc2sc(N(CCCN(C)C)C(=O)c3ccc(S(=O)(=O)N(C)Cc4ccccc4)cc3)nc2c1`, the IC50 is 79.4 µM. The figure for `CC(=O)c1ccccc1OCC(O)CN1CCN(CCN2C(=O)c3cccc4cccc(c34)C2=O)CC1` (centres undefined) is 93.1 µM; for `O=C(CCCCCN1C(=O)c2cccc([N+](=O)[O-])c2C1=O)NCc1ccccc1` it is > 100 µM (inactive); for `O=C(Nc1ccc(F)c(Cl)c1)C1CCN(c2ncnc3c2nc2n3CCCCC2)CC1` it is > 100 µM (inactive). The figure for `CC1CN(S(=O)(=O)c2ccc(NC(=O)CCCCCN3C(=O)c4ccccc4C3=O)cc2)CC(C)O1` (centres undefined) is > 100 µM (inactive); for `CCc1ccc2nc(N(CCCN(C)C)C(=O)c3ccc(S(=O)(=O)N4CCc5ccccc5C4)cc3)sc2c1` it is > 100 µM (inactive). Turning to `O=C(C1COc2ccccc2O1)N1CCN(CCN2C(=O)c3cccc4cccc(c34)C2=O)CC1` (centres undefined), the IC50 is > 100 µM (inactive). With `O=C(C1CCN(c2ncnc3c2nc2n3CCCCC2)CC1)N1CCN(Cc2ccccc2)CC1`, the IC50 was > 100 µM (inactive). The figure for `CN(C)CCCn1c(SCC(=O)Nc2nc(-c3cccc(Br)c3)cs2)nc2ccccc2c1=O` is 16.9 µM; for `COc1ccc(COCC(O)CN2CCC(CN3C(=O)c4cccc5cccc(c45)C3=O)CC2)cc1OC` (centres undefined) it is > 100 µM (inactive). The figure for `O=C(CCCCCN1C(=O)c2ccccc2C1=O)N1CCN(c2ccc([N+](=O)[O-])cc2)CC1` is > 100 µM (inactive). The figure for `COc1cccc(OCC(O)CN2CCN(CCN3C(=O)c4cccc5cccc(c45)C3=O)CC2)c1` (centres undefined) is > 100 µM (inactive). Turning to `O=C(CCCCCN1C(=O)c2cccc3cccc(c23)C1=O)NCCO`, the IC50 is > 100 µM (inactive). Consider `COc1ccc(NC(=O)CCCCCN2C(=O)c3cccc([N+](=O)[O-])c3C2=O)cc1`, for which the IC50 is > 100 µM (inactive).

On to `CC1CCCC(C)N1CCCNC(=O)C1CCCN(c2ncnc3c2nc2n3CCCCC2)C1` (centres undefined), for which the IC50 was > 100 µM (inactive). The figure for `O=C1c2cccc3cccc(c23)N1Cc1ccc(F)cc1` is > 100 µM (inactive); for `CCN(Cc1ccccc1)S(=O)(=O)c1ccc(C(=O)N(CCCN(C)C)c2nc3cc4c(cc3s2)OCCO4)cc1` it is 84 µM; for `Cc1ccc2nc(N(CCCN(C)C)C(=O)c3ccc4c(c3)CCCC4)sc2c1` it is > 100 µM (inactive). Take `CC1(C)Cc2c(sc(NC(=O)COc3ccc(Cl)cc3Cl)c2C(N)=O)C(C)(C)N1`: the IC50 was > 100 µM (inactive). The figure for `O=C(NCCCN1CCN(c2ccc(F)cc2)CC1)C1CCCN(c2ncnc3c2nc2n3CCCCC2)C1` (centres undefined) is > 100 µM (inactive); for `CCOC(=O)c1c(NC(=O)COc2ccccc2C#N)sc2c1CC(C)(C)NC2(C)C` it is > 100 µM (inactive).

Consider `COc1ccc(-c2oc3ncnc(N)c3c2-c2ccccc2)cc1`, for which the IC50 is > 100 µM (inactive). The figure for `CCC1CCCCN1CCCNC(=O)C1CCN(c2ncnc3c2nc2n3CCCCC2)CC1` (centres undefined) is > 100 µM (inactive); for `CC(C)(C)c1ccc(OCC(O)CN2CCN(CCN3C(=O)c4cccc5cccc(c45)C3=O)CC2)cc1` (centres undefined) it is > 100 µM (inactive); for `O=C1c2cccc3cccc(c23)C(=O)N1CCN1CCN(CC(O)COc2ccc3ccccc3c2)CC1` (centres undefined) it is > 100 µM (inactive).

On to `O=C(CCCCCN1C(=O)c2ccccc2C1=O)Nc1ccc(S(=O)(=O)N2CCCCC2)cc1`, for which the IC50 is > 100 µM (inactive). The same measure for `COc1ccccc1NC(=S)NC(=O)CCCCCN1C(=O)c2ccccc2C1=O`: > 100 µM (inactive); for `CN(C)CCCN(C(=O)c1ccc(S(=O)(=O)N(C)Cc2ccccc2)cc1)c1nc2cc3c(cc2s1)OCO3`: 81 µM; for `Cc1ccccc1NC(=S)NC(=O)CCCCCN1C(=O)c2ccccc2C1=O`: > 100 µM (inactive). Take `Cc1ccc(-c2oc3ncnc(N)c3c2-c2ccc(C)cc2)cc1`: the IC50 was > 100 µM (inactive). The figure for `CCOc1ccc2nc(N(CCCN(C)C)C(=O)c3ccc(S(=O)(=O)N4CCc5ccccc5C4)cc3)sc2c1` is > 100 µM (inactive); for `Cc1c(NC(=O)CCCN2C(=O)c3cccc4cccc(c34)C2=O)c(=O)n(-c2ccccc2)n1C` it is > 100 µM (inactive); for `O=C(NCC1CCN(Cc2ccc(Cl)cc2)CC1)C1CCCN(c2ncnc3c2nc2n3CCCCC2)C1` (centres undefined) it is > 100 µM (inactive). As to `O=C(c1ccco1)N1CCN(C(=O)C2CCN(c3ncnc4c3nc3n4CCCCC3)CC2)CC1`, the IC50 was > 100 µM (inactive).

Turning to `COc1ccc(C(=O)Nn2c(C)nc3ccccc3c2=O)cc1`, the IC50 is > 100 µM (inactive). The same measure for `CCN(Cc1ccccc1)S(=O)(=O)c1ccc(C(=O)N(CCCN(C)C)c2nc3cc(C)cc(C)c3s2)cc1`: > 100 µM (inactive). Take `CC(=O)Nc1ccc(OCC(O)CN2CCN(CCN3C(=O)c4cccc5cccc(c45)C3=O)CC2)cc1` (centres undefined): the IC50 is > 100 µM (inactive). The figure for `O=C1c2cccc3cccc(c23)C(=O)N1CCN1CCN(CC(O)COc2ccc3c(c2)OCO3)CC1` (centres undefined) is > 100 µM (inactive). The figure for `O=C(NCC1CCN(Cc2ccccc2F)CC1)C1CCCN(c2ncnc3c2nc2n3CCCCC2)C1` (centres undefined) is > 100 µM (inactive); for `O=C(CCCCCN1C(=O)c2ccccc2C1=O)Nc1ccc(S(=O)(=O)Nc2ncccn2)cc1` it is > 100 µM (inactive). The figure for `O=C(C1CCN(c2ncnc3c2nc2n3CCCCC2)CC1)N1CCOCC1` is > 100 µM (inactive). In the case of `O=C(c1ccc(S(=O)(=O)N2CCCC2)cc1)N1CCC(CN2C(=O)c3cccc4cccc(c34)C2=O)CC1`, the IC50 was > 100 µM (inactive).

For `O=C(NCC1CCN(Cc2ccc(F)cc2)CC1)C1CCCN(c2ncnc3c2nc2n3CCCCC2)C1` (centres undefined), the IC50 is > 100 µM (inactive). The same measure for `CCOc1cccc2sc(N(CCCN(C)C)C(=O)c3ccc(S(=O)(=O)N(C)Cc4ccccc4)cc3)nc12`: > 100 µM (inactive).

On to `CCOc1cccc2sc(N(CCCN(C)C)C(=O)c3ccc(S(=O)(=O)N4CCc5ccccc5C4)cc3)nc12`, for which the IC50 is > 100 µM (inactive). The figure for `O=C1c2cccc3cccc(c23)C(=O)N1CCN1CCN(CC(O)COc2ccc(Cl)cc2)CC1` (centres undefined) is > 100 µM (inactive); for `O=C(CCCCCN1C(=O)c2ccccc2C1=O)NCc1ccco1` it is > 100 µM (inactive); for `O=C(CCCCCN1C(=O)c2ccccc2C1=O)NCCc1nc2ccccc2[nH]1` it is > 100 µM (inactive). With `O=C1c2cccc3cccc(c23)C(=O)N1CCN1CCN(CC(O)COCc2ccc(Cl)cc2)CC1` (centres undefined), the IC50 was > 100 µM (inactive). The figure for `COCCOC(=O)c1ccc(NC(=O)CCCCCN2C(=O)c3ccccc3C2=O)cc1` is > 100 µM (inactive); for `O=C(NCCCN1CCCCC1)C1CCN(c2ncnc3c2nc2n3CCCCC2)CC1` it is > 100 µM (inactive). With `Cc1cc(C)cc(OCCNC(=O)CCCCCN2C(=O)c3ccccc3C2=O)c1`, the IC50 was > 100 µM (inactive). The figure for `COc1ccc(C)c2sc(N(CCCN(C)C)C(=O)c3ccc(S(=O)(=O)N(C)C)cc3)nc12` is > 100 µM (inactive).
